± gives the expanded uncertainty stated by the source.
Legend:
[1] = for surface tension liquid-gas: Wilhelmy-plate method; for mass density / viscosity: 101.33 kPa, Liquid; for viscosity: Capillary tube (Ostwald / Ubbelohde) method
[2] = refractive index (Na D-line) (dimensionless); details: 101.33 kPa, Liquid, Standard Abbe refractometry

Row | SMILES | surface tension liquid-gas ([1]; 288.15 K) [mN/m] | mass density ([1]; 288.15 K) [kg/m3] | viscosity ([1]; 288.15 K) [mPa·s] | surface tension liquid-gas ([1]; 298.15 K) [mN/m] | mass density ([1]; 298.15 K) [kg/m3] | viscosity ([1]; 298.15 K) [mPa·s] | surface tension liquid-gas ([1]; 308.15 K) [mN/m] | mass density ([1]; 308.15 K) [kg/m3] | viscosity ([1]; 308.15 K) [mPa·s] | surface tension liquid-gas ([1]; 318.15 K) [mN/m] | mass density ([1]; 318.15 K) [kg/m3] | viscosity ([1]; 318.15 K) [mPa·s] | surface tension liquid-gas ([1]; 328.15 K) [mN/m] | mass density ([1]; 328.15 K) [kg/m3] | viscosity ([1]; 328.15 K) [mPa·s] | surface tension liquid-gas ([1]; 338.15 K) [mN/m] | mass density ([1]; 338.15 K) [kg/m3] | viscosity ([1]; 338.15 K) [mPa·s] | surface tension liquid-gas ([1]; 348.15 K) [mN/m] | mass density ([1]; 348.15 K) [kg/m3] | further results
1 | CCOC(=O)Cc1ccccc1 [ethyl phenylacetate] | 35.9 ± 0.4 | 1036.35 ± 0.39 | 3.002 ± 0.04 | 34.6 ± 0.4 | 1026.96 ± 0.38 | 2.384 ± 0.032 | 33.5 ± 0.4 | 1017.6 ± 0.37 | 1.948 ± 0.026 | 32.8 ± 0.4 | 1008.26 ± 0.35 | 1.624 ± 0.022 | 31.6 ± 0.4 | 998.93 ± 0.35 | 1.383 ± 0.019 | 30.6 ± 0.4 | 989.61 ± 0.35 | 1.191 ± 0.016 | 29.4 ± 0.4 | 980.28 ± 0.36 | viscosity ([1]; 348.15 K): 1.037 ± 0.014 mPa·s; surface tension liquid-gas ([1]; 358.15 K): 28.6 ± 0.4 mN/m; mass density ([1]; 358.15 K): 970.95 ± 0.37 kg/m3; viscosity ([1]; 358.15 K): 0.908 ± 0.012 mPa·s; refractive index ([2]; 288.15 K): 1.49971 ± 0.00034; refractive index ([2]; 298.15 K): 1.49513 ± 0.00034; refractive index ([2]; 308.15 K): 1.49063 ± 0.00034; refractive index ([2]; 318.15 K): 1.48583 ± 0.00034; refractive index ([2]; 328.15 K): 1.48149 ± 0.00034; refractive index ([2]; 338.15 K): 1.47688 ± 0.00034; refractive index ([2]; 348.15 K): 1.47224 ± 0.00034; refractive index ([2]; 358.15 K): 1.46747 ± 0.00034
2 | COC(=O)c1ccccc1 [methyl benzoate] | 38.6 ± 0.4 | 1093.23 ± 0.57 | 2.297 ± 0.031 | 37.2 ± 0.4 | 1083.92 ± 0.55 | 1.851 ± 0.025 | 35.8 ± 0.4 | 1074.34 ± 0.54 | 1.531 ± 0.021 | 34.8 ± 0.4 | 1064.62 ± 0.52 | 1.297 ± 0.018 | 33.7 ± 0.4 | 1054.82 ± 0.51 | 1.108 ± 0.015 | 32.5 ± 0.4 | 1044.99 ± 0.49 | 0.97 ± 0.013 | 31.3 ± 0.4 | 1035.23 ± 0.48 | viscosity ([1]; 348.15 K): 0.852 ± 0.012 mPa·s; surface tension liquid-gas ([1]; 358.15 K): 30.4 ± 0.4 mN/m; mass density ([1]; 358.15 K): 1025.6 ± 0.47 kg/m3; viscosity ([1]; 358.15 K): 0.75 ± 0.01 mPa·s; refractive index ([2]; 288.15 K): 1.51915 ± 0.00035; refractive index ([2]; 298.15 K): 1.51467 ± 0.00035; refractive index ([2]; 308.15 K): 1.50993 ± 0.00035; refractive index ([2]; 318.15 K): 1.50514 ± 0.00035; refractive index ([2]; 328.15 K): 1.50058 ± 0.00035; refractive index ([2]; 338.15 K): 1.49584 ± 0.00035; refractive index ([2]; 348.15 K): 1.49107 ± 0.00035; refractive index ([2]; 358.15 K): 1.48624 ± 0.00035

From the NIST ThermoML archive (doi:10.1021/je050170x)
